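Tested at 5 concentrations; 48 h exposure; 96-well plates; endpoints linearly interpolated, else capped at highest concentration. At the GI50, growth is halved. TGI marks complete inhibition of growth.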
Assays:
Test in all cases: DTP human tumour cell line panel, 48 h
786-0 renal = tested on: 786-0 renal
A549 NSCLC = tested on: A549 NSCLC
ACHN renal = tested on: ACHN renal
BT-549 breast = tested on: BT-549 breast
CAKI-1 renal = tested on: CAKI-1 renal
CCRF-CEM leukemia = tested on: CCRF-CEM leukemia
COLO 205 colon = tested on: COLO 205 colon
DU-145 prostate = tested on: DU-145 prostate
EKVX NSCLC = tested on: EKVX NSCLC
HCC-2998 colon = tested on: HCC-2998 colon
HCT-116 colon = tested on: HCT-116 colon
HCT-15 colon = tested on: HCT-15 colon
HL-60(TB) leukemia = tested on: HL-60(TB) leukemia
HOP-62 NSCLC = tested on: HOP-62 NSCLC
HOP-92 NSCLC = tested on: HOP-92 NSCLC
HS 578T breast = tested on: HS 578T breast
HT29 colon = tested on: HT29 colon
IGROV1 ovarian = tested on: IGROV1 ovarian
KM12 colon = tested on: KM12 colon
LOX IMVI melanoma = tested on: LOX IMVI melanoma
M14 melanoma = tested on: M14 melanoma
MALME-3M melanoma = tested on: MALME-3M melanoma
MCF7 breast = tested on: MCF7 breast
MDA-MB-231 breast = tested on: MDA-MB-231 breast
MDA-MB-435 = tested on: MDA-MB-435
MOLT-4 leukemia = tested on: MOLT-4 leukemia
NCI-H226 lung = tested on: NCI-H226 lung
NCI-H23 lung = tested on: NCI-H23 lung
NCI-H460 lung = tested on: NCI-H460 lung
NCI-H522 lung = tested on: NCI-H522 lung
NCI/ADR-RES ovarian = tested on: NCI/ADR-RES ovarian
OVCAR-3 ovarian = tested on: OVCAR-3 ovarian
OVCAR-4 ovarian = tested on: OVCAR-4 ovarian
OVCAR-5 ovarian = tested on: OVCAR-5 ovarian
OVCAR-8 ovarian = tested on: OVCAR-8 ovarian
RPMI-8226 leukemia = tested on: RPMI-8226 leukemia
RXF 393 renal = tested on: RXF 393 renal
SF-268 CNS = tested on: SF-268 CNS
SF-295 CNS = tested on: SF-295 CNS
SF-539 CNS = tested on: SF-539 CNS
SK-MEL-2 melanoma = tested on: SK-MEL-2 melanoma
SK-MEL-28 melanoma = tested on: SK-MEL-28 melanoma
SK-MEL-5 melanoma = tested on: SK-MEL-5 melanoma
SK-OV-3 ovarian = tested on: SK-OV-3 ovarian
SN12C renal = tested on: SN12C renal
SNB-19 CNS = tested on: SNB-19 CNS
SNB-75 CNS = tested on: SNB-75 CNS
SR leukemia = tested on: SR leukemia
SW-620 colon = tested on: SW-620 colon
T-47D breast = tested on: T-47D breast
TK-10 renal = tested on: TK-10 renal
U251 CNS = tested on: U251 CNS
UACC-257 melanoma = tested on: UACC-257 melanoma
UACC-62 melanoma = tested on: UACC-62 melanoma
UO-31 renal = tested on: UO-31 renal
A498 renal = tested on: A498 renal
PC-3 prostate = tested on: PC-3 prostate
K-562 leukemia = tested on: K-562 leukemia

## CON
786-0 renal
  GI50: > 100 µM
  TGI: > 100 µM
A549 NSCLC
  GI50: > 100 µM
  TGI: > 100 µM
ACHN renal
  GI50: > 100 µM
  TGI: > 100 µM
BT-549 breast
  GI50: > 100 µM
  TGI: > 100 µM
CAKI-1 renal
  GI50: > 100 µM
  TGI: > 100 µM
CCRF-CEM leukemia
  GI50: > 100 µM
  TGI: > 100 µM
COLO 205 colon
  GI50: > 100 µM
  TGI: > 100 µM
DU-145 prostate
  GI50: > 100 µM
  TGI: > 100 µM
EKVX NSCLC
  GI50: > 100 µM
  TGI: > 100 µM
HCC-2998 colon
  GI50: > 100 µM
  TGI: > 100 µM
HCT-116 colon
  GI50: > 100 µM
  TGI: > 100 µM
HCT-15 colon
  GI50: > 100 µM
  TGI: > 100 µM
HL-60(TB) leukemia
  GI50: > 100 µM
  TGI: > 100 µM
HOP-62 NSCLC
  GI50: > 100 µM
  TGI: > 100 µM
HOP-92 NSCLC
  GI50: > 100 µM
  TGI: > 100 µM
HS 578T breast
  GI50: > 100 µM
  TGI: > 100 µM
HT29 colon
  GI50: > 100 µM
  TGI: > 100 µM
IGROV1 ovarian
  GI50: > 100 µM
  TGI: > 100 µM
KM12 colon
  GI50: > 100 µM
  TGI: > 100 µM
LOX IMVI melanoma
  GI50: > 100 µM
  TGI: > 100 µM
M14 melanoma
  GI50: > 100 µM
  TGI: > 100 µM
MALME-3M melanoma
  GI50: > 100 µM
  TGI: > 100 µM
MCF7 breast
  GI50: > 100 µM
  TGI: > 100 µM
MDA-MB-231 breast
  GI50: > 100 µM
  TGI: > 100 µM
MDA-MB-435
  GI50: > 100 µM
  TGI: > 100 µM
MOLT-4 leukemia
  GI50: > 100 µM
  TGI: > 100 µM
NCI-H226 lung
  GI50: > 100 µM
  TGI: > 100 µM
NCI-H23 lung
  GI50: > 100 µM
  TGI: > 100 µM
NCI-H460 lung
  GI50: > 100 µM
  TGI: > 100 µM
NCI-H522 lung
  GI50: > 100 µM
  TGI: > 100 µM
NCI/ADR-RES ovarian
  GI50: > 100 µM
  TGI: > 100 µM
OVCAR-3 ovarian
  GI50: > 100 µM
  TGI: > 100 µM
OVCAR-4 ovarian
  GI50: > 100 µM
  TGI: > 100 µM
OVCAR-5 ovarian
  GI50: > 100 µM
  TGI: > 100 µM
OVCAR-8 ovarian
  GI50: > 100 µM
  TGI: > 100 µM
RPMI-8226 leukemia
  GI50: > 100 µM
  TGI: > 100 µM
RXF 393 renal
  GI50: > 100 µM
  TGI: > 100 µM
SF-268 CNS
  GI50: > 100 µM
  TGI: > 100 µM
SF-295 CNS
  GI50: > 100 µM
  TGI: > 100 µM
SF-539 CNS
  GI50: > 100 µM
  TGI: > 100 µM
SK-MEL-2 melanoma
  GI50: > 100 µM
  TGI: > 100 µM
SK-MEL-28 melanoma
  GI50: > 100 µM
  TGI: > 100 µM
SK-MEL-5 melanoma
  GI50: > 100 µM
  TGI: > 100 µM
SK-OV-3 ovarian
  GI50: > 100 µM
  TGI: > 100 µM
SN12C renal
  GI50: > 100 µM
  TGI: > 100 µM
SNB-19 CNS
  GI50: > 100 µM
  TGI: > 100 µM
SNB-75 CNS
  GI50: > 100 µM
  TGI: > 100 µM
SR leukemia
  GI50: > 100 µM
  TGI: > 100 µM
SW-620 colon
  GI50: > 100 µM
  TGI: > 100 µM
T-47D breast
  GI50: > 100 µM
  TGI: > 100 µM
TK-10 renal
  GI50: > 100 µM
  TGI: > 100 µM
U251 CNS
  GI50: > 100 µM
  TGI: > 100 µM
UACC-257 melanoma
  GI50: > 100 µM
  TGI: > 100 µM
UACC-62 melanoma
  GI50: > 100 µM
  TGI: > 100 µM
UO-31 renal
  GI50: > 100 µM
  TGI: > 100 µM

## COc1cnc2c(c1)C(=O)c1c-2n(CCCN2CCN(CCO)CC2)c(=O)c2cc([N+](=O)[O-])ccc12
786-0 renal
  GI50: 1.61 µM
  TGI: 3.13 µM
A498 renal
  GI50: 0.794 µM
  TGI: 19.7 µM
A549 NSCLC
  GI50: 1.13 µM
  TGI: 2.48 µM
ACHN renal
  GI50: 0.738 µM
  TGI: 15.9 µM
BT-549 breast
  GI50: 2.9 µM
  TGI: 18.9 µM
CAKI-1 renal
  GI50: 1.34 µM
  TGI: 15.8 µM
CCRF-CEM leukemia
  GI50: 0.494 µM
  TGI: > 100 µM
COLO 205 colon
  GI50: 1.18 µM
  TGI: 5.13 µM
DU-145 prostate
  GI50: 1.43 µM
  TGI: 4.42 µM
EKVX NSCLC
  GI50: 1.8 µM
  TGI: 4.23 µM
HCC-2998 colon
  GI50: 11.7 µM
  TGI: 24.9 µM
HCT-15 colon
  GI50: 1.18 µM
  TGI: 2.67 µM
HL-60(TB) leukemia
  GI50: 1.69 µM
  TGI: 5.27 µM
HOP-62 NSCLC
  GI50: 2.76 µM
  TGI: 19.6 µM
HOP-92 NSCLC
  GI50: 13.3 µM
  TGI: 31 µM
HS 578T breast
  GI50: 14.7 µM
  TGI: 42.1 µM
HT29 colon
  GI50: 1.24 µM
  TGI: 2.63 µM
KM12 colon
  GI50: 1.74 µM
  TGI: 4.41 µM
LOX IMVI melanoma
  GI50: 1.08 µM
  TGI: 2.51 µM
M14 melanoma
  GI50: 0.769 µM
  TGI: 2.49 µM
MALME-3M melanoma
  GI50: 1.56 µM
  TGI: 3.33 µM
MCF7 breast
  GI50: 0.142 µM
  TGI: 1.59 µM
MDA-MB-231 breast
  GI50: 1.81 µM
  TGI: 3.74 µM
MDA-MB-435
  GI50: 1.97 µM
  TGI: 4.66 µM
MOLT-4 leukemia
  GI50: 0.552 µM
  TGI: 4.45 µM
NCI-H226 lung
  GI50: 0.964 µM
  TGI: 20 µM
NCI-H23 lung
  GI50: 1.27 µM
  TGI: 3.33 µM
NCI-H460 lung
  GI50: 0.267 µM
  TGI: 1.45 µM
NCI-H522 lung
  GI50: 0.499 µM
  TGI: 2.89 µM
NCI/ADR-RES ovarian
  GI50: 1.29 µM
  TGI: 3.86 µM
OVCAR-3 ovarian
  GI50: 1.46 µM
  TGI: 3.12 µM
OVCAR-4 ovarian
  GI50: 1.79 µM
  TGI: 4.42 µM
OVCAR-5 ovarian
  GI50: 19.5 µM
  TGI: 37.2 µM
OVCAR-8 ovarian
  GI50: 1.39 µM
  TGI: 5.03 µM
PC-3 prostate
  GI50: 16.5 µM
  TGI: 92.6 µM
RPMI-8226 leukemia
  GI50: 1.57 µM
  TGI: 6.75 µM
RXF 393 renal
  GI50: 4.68 µM
  TGI: 20.4 µM
SF-268 CNS
  GI50: 1.07 µM
  TGI: 4.92 µM
SF-295 CNS
  GI50: 0.533 µM
  TGI: 2.05 µM
SF-539 CNS
  GI50: 1.7 µM
  TGI: 3.68 µM
SK-MEL-2 melanoma
  GI50: 18.7 µM
  TGI: 39 µM
SK-MEL-28 melanoma
  GI50: 2.01 µM
  TGI: 4.16 µM
SK-MEL-5 melanoma
  GI50: 1.44 µM
  TGI: 2.78 µM
SK-OV-3 ovarian
  GI50: 4.99 µM
  TGI: 20.2 µM
SNB-19 CNS
  GI50: 2.38 µM
  TGI: 12.4 µM
SNB-75 CNS
  GI50: 1.64 µM
  TGI: 13.1 µM
SW-620 colon
  GI50: 0.326 µM
  TGI: 2.07 µM
T-47D breast
  GI50: 12.8 µM
  TGI: 46.5 µM
TK-10 renal
  GI50: 2.77 µM
  TGI: 11.9 µM
U251 CNS
  GI50: 1.16 µM
  TGI: 2.42 µM
UACC-257 melanoma
  GI50: 2.26 µM
  TGI: 6.87 µM
UACC-62 melanoma
  GI50: 1.22 µM
  TGI: 3.16 µM
UO-31 renal
  GI50: 3.32 µM
  TGI: 20.8 µM

## Cc1ccc(S(=O)(=O)N2CCN3CCN(CCN(C)CCN4CCN(CC4)CCN(S(=O)(=O)c4ccc(C)cc4)CCN(S(=O)(=O)c4ccc(C)cc4)CCN(S(=O)(=O)c4ccc(C)cc4)CCN(S(=O)(=O)c4ccc(C)cc4)CCN4CCN(CCN(C)CCN5CCN(CC5)CCN(S(=O)(=O)c5ccc(C)cc5)CCN(S(=O)(=O)c5ccc(C)cc5)CCN(S(=O)(=O)c5ccc(C)cc5)CC2)CC4)CC3)cc1
CCRF-CEM leukemia
  TGI: 0.972 µM
EKVX NSCLC
  TGI: 5.82 µM
HCT-15 colon
  TGI: 2.82 µM
HL-60(TB) leukemia
  TGI: 2.7 µM
K-562 leukemia
  TGI: 11 µM
MCF7 breast
  TGI: 3.3 µM
MOLT-4 leukemia
  TGI: 2.91 µM
NCI/ADR-RES ovarian
  TGI: > 100 µM
OVCAR-5 ovarian
  TGI: 3.42 µM
RPMI-8226 leukemia
  TGI: 11.9 µM
SF-268 CNS
  TGI: 6.62 µM
SF-539 CNS
  TGI: 4.45 µM
SNB-75 CNS
  TGI: 5.58 µM
SR leukemia
  TGI: 10.6 µM

Source: PubChem BioAssay (NCI)
